The values that follow come from US10894777B2, “TG2 inhibitor piperazine compounds and uses thereof” (UNIVERSITY OF OTTAWA, priority 2016, dated 2021).

One experiment has as its target hTG6 (Homo sapiens, UniProt O95932). The experiment can be described thus: Colorimetric transamidase activity assay (AL5 substrate), hTG6. Format: biochemical. The protocol: (§1) Selectivity of certain irreversible inhibitors over other members of the transglutaminase family was assessed. […] Inhibitors were tested using a continuous colorimetric assay (Leblanc, A. et al., Biochemistry (2001), 40 (28): 8335-8342) for hTG1 and hTG6 and a commercially available continuous fluorescent assay that utilizes a peptidic FRET quenched substrate (Oertel, K. et al., Anal. Biochem. (2007), 367 (2): 152-158; Király, R. et al., Amino Acids (2016), 48 (1): 31-40) for the other transglutaminases, FXIIIa and hTG3. The rate constant of enzyme inactivation (kobs) for a specific concentration of inhibitor was obtained using Kitz and Wilson conditions (Kitz, R. et al., J. Biol. Chem. (1962), 237: 3245-49). Inhibitor concentrations were adjusted to account for competition with substrates in each enzymatic reaction.
In Vitro Assays. Colorimetric transamidase activity assay.

Another experiment concerns the target T1, FXIIIa (Homo sapiens, UniProt P00488).
T1 construct: purchased Zedira
Nature of the experiment: Fluorescence isopeptidase activity assay (A101 probe), FXIIIa. The experiment is classed as biochemical. As to the method: as §1
Fluorescence isopeptidase activity assay. The isopeptidase activity of pre-activated TG3a and FXIIIa (purchased from Zedira) was measured via a fluorescence-based assay (Király, R. et al., Amino Acids (2016), 48 (1): 31-40) using the commercially available peptidic FRET quenched probe A101 from Zedira. Briefly, the final concentration in the reaction mixture contained 50 mM Tris (pH 7.0), 10 mM CaCl2, 100 mM NaCl, 2.8 mM TCEP, 50 μM A101 and 14 mM H-Gly-OMe. The reaction was monitored at 25° C. using a BioTek Synergy 4 plate reader (Ex/Em: 318/413 nm).

Experiment [1] has as its system TG2 fusion protein mCer-TG2-YFP. Nature of the experiment: Fluorescence lifetime imaging (FLIM) of mCer-TG2-YFP conformation, SCC-13 cells. The experiment is classed as cell-based, human. The note with it: NC9, VA4, VA5 0-20 μM 24 or 48 h; Cp4d 0-10 μM 48 h. As to the method:
We monitored the impact of each inhibitor on intracellular TG2 structure using FLIM (Fluorescence Lifetime Imaging Microscopy). FLIM is a quantitative method of assessing fluorescence lifetime that measures energy transfer between donor and accept probes Fluorescence lifetime is measured in nanoseconds and a short lifetime correlates with close contact between probes (FIG. 29B). An advantage of this method is that fluorescent lifetimes are independent of probe concentration. In the present experiments, we expressed in cells a TG2 fusion protein in which the donor probe (mCER) is fused to the N-terminus and the acceptor probe (YFP) at the C-terminus (FIG. 29B). mCER and YFP comprise an ideal donor/acceptor pair; the donor probe is excited by laser illumination and energy transfer to the acceptor is monitored. The fluorescent lifetime is shorter when TG2 is in the closed conformation which brings mCER and YFP close together. SCC-13 cells were electroporated with empty vector, mCER-TG2 or mCER-TG2-YFP.
Fluorescence lifetime imaging. Fluorescence lifetime images were acquired using FLIM system (Alba 5 from ISS). […] Emission was observed through bandpass filter 480/35 nm (Chroma Technology) and detected by a photomultiplier H7422-40 (Hamamatsu). FLIM data were acquired using time-domain modality (SPC-830 TCSPC module from Becker and Hickl GmbH). […] To account for intensity heterogeneity within single intensity images, two to five consecutive scans were acquired and summed to build FLIM intensity image for lifetime analysis. […] FLIM data were analyzed using VistaVision Suite software (Vista v.213 from ISS). Lifetime images were generated by fitting data using single exponential intensity decay model. Intensity threshold for lifetime analysis was set of at least 3-fold above the intensity of dim cells and fitting procedure was performed for binned pixels at level of 3 (7×7 pixels). Lifetime distribution within image is represented with histogram showing pixel frequency of specific lifetime. The average lifetime values with standard deviations were calculated based on all processed pixels in lifetime image. FRET values were calculated according to the formula ET=1−(τDA/τD), where τD is the lifetime of donor (mCer-TG2) and τDA is the lifetime of donor-acceptor pair (mCer-TG2—YFP).

For a further experiment, the target named is T2, endogenous TG2 (Homo sapiens, UniProt P21980).
T2 construct: endogenous in cells; host or cells: HaCaT
T2 sequence (P21980 1-687): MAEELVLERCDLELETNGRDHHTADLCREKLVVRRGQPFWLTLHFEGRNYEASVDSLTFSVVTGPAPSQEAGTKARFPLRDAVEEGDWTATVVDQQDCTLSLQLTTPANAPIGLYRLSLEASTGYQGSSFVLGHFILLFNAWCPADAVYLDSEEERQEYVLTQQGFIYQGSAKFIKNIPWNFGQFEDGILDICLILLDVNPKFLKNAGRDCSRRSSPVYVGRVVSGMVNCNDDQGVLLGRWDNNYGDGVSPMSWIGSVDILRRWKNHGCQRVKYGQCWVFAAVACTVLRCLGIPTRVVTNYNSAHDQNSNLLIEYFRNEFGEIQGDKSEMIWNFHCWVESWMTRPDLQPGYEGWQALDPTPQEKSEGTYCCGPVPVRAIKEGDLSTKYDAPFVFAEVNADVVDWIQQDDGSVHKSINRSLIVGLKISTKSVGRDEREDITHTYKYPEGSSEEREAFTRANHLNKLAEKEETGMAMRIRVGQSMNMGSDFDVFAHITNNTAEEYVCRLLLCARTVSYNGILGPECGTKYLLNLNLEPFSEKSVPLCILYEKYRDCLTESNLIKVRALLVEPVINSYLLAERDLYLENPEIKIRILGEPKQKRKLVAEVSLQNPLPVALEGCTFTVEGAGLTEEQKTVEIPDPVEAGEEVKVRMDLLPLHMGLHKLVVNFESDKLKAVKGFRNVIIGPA
Nature of the experiment: TG2 GTP-agarose pull-down assay, HaCaT cells. The note with it: 48 h. Format: cell-based. As to the method:
HaCaT cells were electroporated with mCer-TG2 or mCer-TG2-YAP and then treated with 0 or 5 μM of the indicated inhibitor and fluorescent lifetime was monitored. […] HaCaT cells were preloaded with fluorescein cadaverine, treated with the indicated inhibitor and then challenged with calcium ionophore, washed and assayed for FC incorporation. […] HaCaT were incubated for 48 h with the indicated inhibitor and extracts were prepared and incubated with GTP-agarose beads to measure TG2 binding to GTP agarose. The beads were then washed, boiled in Laemmli buffer and electrophoresed for immunoblot detection of TG2. Cell equivalent quantities of total and bound samples were electrophoresed to facilitate comparison of GTP bound versus total. […] Experiments were performed as described in FIGS. 31 (F) and (G).

Setting [2] is: Table 9, Kitz and Wilson conditions.

Chain of hTG6 (O95932 whole entry): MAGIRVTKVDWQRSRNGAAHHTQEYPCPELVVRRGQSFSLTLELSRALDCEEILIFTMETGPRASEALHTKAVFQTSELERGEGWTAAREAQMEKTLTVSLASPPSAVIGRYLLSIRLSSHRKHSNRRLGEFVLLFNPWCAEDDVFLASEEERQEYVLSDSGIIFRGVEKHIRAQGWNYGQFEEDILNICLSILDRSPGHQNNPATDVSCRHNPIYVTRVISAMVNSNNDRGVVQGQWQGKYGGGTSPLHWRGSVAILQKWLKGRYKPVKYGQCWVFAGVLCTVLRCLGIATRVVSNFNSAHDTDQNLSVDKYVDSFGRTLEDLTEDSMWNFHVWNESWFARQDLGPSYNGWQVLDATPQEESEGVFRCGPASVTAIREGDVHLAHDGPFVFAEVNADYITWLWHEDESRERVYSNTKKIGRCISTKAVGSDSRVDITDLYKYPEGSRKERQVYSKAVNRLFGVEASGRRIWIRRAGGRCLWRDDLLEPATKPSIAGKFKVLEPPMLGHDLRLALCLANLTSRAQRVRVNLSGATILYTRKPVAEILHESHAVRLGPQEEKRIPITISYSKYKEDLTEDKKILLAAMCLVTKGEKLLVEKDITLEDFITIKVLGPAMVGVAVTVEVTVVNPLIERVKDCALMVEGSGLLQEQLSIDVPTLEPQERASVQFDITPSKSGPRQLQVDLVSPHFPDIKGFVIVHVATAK
T1 sequence (P00488 39-732 limits assumed): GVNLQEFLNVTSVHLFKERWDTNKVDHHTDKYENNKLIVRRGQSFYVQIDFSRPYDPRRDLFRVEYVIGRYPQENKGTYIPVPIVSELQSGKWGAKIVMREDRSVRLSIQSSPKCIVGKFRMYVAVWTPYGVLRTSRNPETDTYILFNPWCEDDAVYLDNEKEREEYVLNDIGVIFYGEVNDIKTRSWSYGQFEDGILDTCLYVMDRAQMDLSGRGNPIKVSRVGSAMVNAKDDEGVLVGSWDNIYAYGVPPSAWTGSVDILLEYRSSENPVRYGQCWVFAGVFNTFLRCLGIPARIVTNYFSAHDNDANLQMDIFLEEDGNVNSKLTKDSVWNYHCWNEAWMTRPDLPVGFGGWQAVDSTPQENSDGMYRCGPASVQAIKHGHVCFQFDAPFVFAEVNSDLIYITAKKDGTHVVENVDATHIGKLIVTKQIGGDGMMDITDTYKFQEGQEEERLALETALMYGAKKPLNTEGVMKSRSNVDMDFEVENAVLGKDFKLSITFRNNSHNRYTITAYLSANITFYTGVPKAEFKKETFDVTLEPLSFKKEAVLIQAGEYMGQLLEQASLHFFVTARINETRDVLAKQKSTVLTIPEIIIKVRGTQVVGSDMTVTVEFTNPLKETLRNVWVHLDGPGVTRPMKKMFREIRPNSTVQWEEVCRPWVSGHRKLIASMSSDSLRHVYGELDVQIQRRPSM

For `C=CC(=O)NCCCC[C@H](NC(=O)OCc1ccccc1)C(=O)NCCOCCOCCNS(=O)(=O)c1cccc2c(N(C)C)cccc12` [NC9], the “kobs (10^−3 min^−1), TG6” value at hTG6 (setting [2]) is 6.16 ± 0.14 10^−3 min^−1. Moreover, the “kobs (10^−3 min^−1), FXIIIa” value on FXIIIa (setting [2]) is listed as 5.91 ± 1.59 10^−3 min^−1. Also, the “fluorescence lifetime of mCer-TG2-YFP” value in experiment [1] is “markedly increased”. Also, the “TG2 GTP binding” value on endogenous TG2 is on record as “reduced TG2 GTP binding”.
`C=CC(=O)NCCCC[C@H](NC(=O)OCc1ccccc1)C(=O)N1CCN(S(=O)(=O)c2cccc3c(N(C)C)cccc23)CC1` [VA4, (S)-benzyl(6-acrylamido-1-(4-((5-(dimethylamino)naphthalen-1-yl)sulfonyl)piperazin-1-yl)-1-oxohexan-2-yl)carbamate]: the “inhibition of hTG6” value on hTG6 is “no inhibition was observed”. Moreover, on FXIIIa (from kobs), the “less reactive with FXIIIa compared to hTG2” value is 80 fold. For the same compound, the “fluorescence lifetime of mCer-TG2-YFP” value in experiment [1] is “markedly increased”. In addition, the “TG2 GTP binding” value on endogenous TG2 is on record as “reduced TG2 GTP binding”.
With `C=CC(=O)NCCCC[C@H](NC(=O)OCc1ccccc1)C(=O)N1CCN(C(=O)c2cc3ccc(O)cc3oc2=O)CC1` [VA5, (S)-Benzyl(6-acrylamido-1-(4-(7-hydroxy-2-oxo-2H-chromene-3-carbonyl)piperazin-1-yl)-1-oxohexan-2-yl)carbamate], the “fluorescence lifetime of mCer-TG2-YFP” value in experiment [1] is listed as “markedly increased”. In addition, the “TG2 GTP binding” value on endogenous TG2 is “reduced TG2 GTP binding”.
